Laboratory results: patent US7495028B2, “R-bambuterol, its preparation and therapeutic uses” (priority 2002, dated 2009)

Columns and labels:
[1] = test system: sensitized conscious guinea pigs exposed to aerosol ovalbumin; test: Protection against allergic bronchospasm in ovalbumin-sensitized conscious guinea pigs; format: in vivo, guinea pig
Experimental: Test method: Guinea pigs (Dunkin-Hartley strain, 200±10 g, equal sexes) were used in this study. Ovalbumin (5%) solution was injected into guinea pigs subcutaneously and intraperitoneally to sensitize the animals. Male and female sensitized animals were kept separately for 14 days, and food and water was available ad libitum. On day 14 after sensitization, animals were randomized into groups of 8 each. The animals were treated orally with saline (control) or various concentrations of R-bambuterol or racemic bambuterol in saline. Four hours after the treatment, each animal was restrained in a glass chamber. After stabilization the animal was exposed to an aerosol of ovalbumin generated by a nebulizer from a 5% solution of ovalbumine at a rate of 0.5 ml/min for a period of 15 seconds. The animal was removed from the chamber, and the behavior of the animal was monitored. The number of the sensitized animals which collapsed were counted, and the latency time, i.e. the time from the exposure to aerosol ovalbumin to the collapse of the animal, was recorded.

hyperlipidemia mice = test: Lipid lowering effects in Tyloxapol-induced hyperlipidemia mice; format: in vivo
Experimental: Test method: Male and […] mice, Kunming strain, 35 each, weight 18-22 grams, were used. Food and water were available ad libitum. The animals were randomized into 7 groups (n=10). Groups of animals were administered orafly, via a stomach tube, vehicle (distilled water, two groups), R-bambuterol hydrochloride (10 mg/kg and 5 mg/kg), racemic bambuterol hydrochloride (10 mg/kg and 5 mg/kg) and simvastatin (10 mg/kg) once a day for four days. With the exception of one vehicle—treated group (as control), Tyloxapol (400 mg/kg, Sigma Chemical Co.) was injected into the peritoneal cavity of the mice of all groups immediately after the last treatment on the fourth day in order to induce hyperlipidemia. All the animals were fasted overnight prior to the injection of Tyloxapol. Blood samples were collected by cardiac puncture 24 hours after the injection of Tyloxapol. The blood samples were processed to plasma, and concentration of triglycerides (TG), cholesterol (CHO), high density lipoprotein (HDL), low density lipoprotein (LDL) and very low density lipoprotein (VLDL) were measured with an autoblood analyzer (Olympic, Japan).

[2] = in plasma; cited from earlier work

**Q.** What does the source list for `CN(C)C(=O)Oc1cc(OC(=O)N(C)C)cc(C(O)CNC(C)(C)C)c1` (stereo not shown) [RS-bambuterol, bambuterol]?
**A.** % collapsed ([1]; 1 mg/kg oral): 75%; Latency time ([1]; 1 mg/kg oral): 156 ± 38 s; Number collapsed ([1]; 1 mg/kg oral (n = 8), four hours before aerosol ovalbumin): 6; % collapsed ([1]; 4 mg/kg oral): 38%; Latency time ([1]; 4 mg/kg oral): 174 ± 21 s; Number collapsed ([1]; 4 mg/kg oral (n = 8)): 3; % collapsed ([1]; 8 mg/kg oral): 25%; Number collapsed ([1]; 8 mg/kg oral (n = 8)): 2; Latency time ([1]; 8 mg/kg oral, listed as Racemic bambuterol): 316 ± 36 s; Latency time ([1]; 8 mg/kg oral, listed as racemic bambuterol): 316 ± 36 s; CHO lipid level (hyperlipidemia mice; Tyl + 10 mg): 125.2 ± 19.8 mg/dL; HDL lipid level (hyperlipidemia mice; Tyl + 10 mg): 50 ± 17 mg/dL; LDL lipid level (hyperlipidemia mice; Tyl + 10 mg): 30 ± 6 mg/dL; VLDL lipid level (hyperlipidemia mice; Tyl + 10 mg): 44.2 ± 14.4 mg/dL; TG lipid level (hyperlipidemia mice; Tyl + 10 mg (10 mg/kg oral once a day for four days), plasma 24 hours after Tyloxapol): 148 ± 45 mg/dL; Fraction of absorbed bambuterol hydrolyzed to terbutaline [2]: about 50%
